Assay results: PMC7442133, “Reduced treatment frequencies with bumped kinase inhibitor 1369 are effective against porcine cystoisosporosis” (International Journal for Parasitology: Drugs and Drug …, 2020)

How the values were obtained:
[1] = Fecal drug kinetics: BKI concentrations in pooled feces by LC-MS/MS; type: in vivo, piglets
Procedure: Additionally, to determine exposure to BKI 1369 and its metabolites, BKI 1318 and BKI 1817, pooled fecal samples per group were collected before treatment (−24 h), 2, 24 and 48 h after treatment and at the end of the study (SD 29; experiment I). Approximately 1 g of feces was soaked overnight in 3 ml phosphate buffered saline (PBS, pH 7.4). The following day, 12 ml of acetonitrile containing 100 μM propanolol as an internal standard was added and the mixture was thoroughly vortexed and centrifuged at 1000×g for 30 min. Clear supernatant was then transferred to Eppendorf tubes and concentrated in a miVac® Duo Concentrator (SP Scientific, Pennsylvania, USA) at 35 °C. Control/blank samples spiked with known amounts of target analyte were processed in tandem to provide a standard curve. The concentrated samples were shipped to the University of Washington and were stored at −20 °C until analysis by liquid chromatography-tandem mass spectrometry (LC-MS/MS) to determine fecal pharmacokinetics. All LC-MS/MS analyses were carried out on a Waters Acquity UPLC coupled with a Xevo TQS Micro and analyzed using MassLynx software (Waters Corporation, Milford, MA, USA). Extraction and LC-MS/MS conditions are described in detail in the Supplementary File S1.
Tissue and feces from vehicle control treated piglets were used as blanks or standards. Calibration curves for BKI 1369, BKI 1318, and BKI 1817 were prepared by adding 2 μL BKI in dimethylsulfoxide (DMSO) to 18 μL tissue or feces controls to generate nominal concentrations of 0.004, 0.008, 0.02, 0.04, 0.08, 0.2, 0.4, 0.8, 2, 5, 10, and 20 μM. Calibration curves were generated separately for each tissue type and feces.
5 μL of tissue homogenate curves and samples were added to tubes that contained 95 μL of 80:20 acetonitrile: water. As an internal standard, propranolol was added to each sample to a final concentration of 20 nM. Samples were dried to completion using a miVac Duo Concentrator (SP Scientific, Pennsylvania, USA) at 35 °C. Sample processing for feces was similar but utilized a slightly different process to concentrate the sample as explained in the methods. Dried Samples were sealed and shipped to the University of Washington for LC-MS/MS analysis.

[2] = tested on: C. suis merozoites; assay: Merozoite replication (growth) inhibition in infected IPEC-1 cultures, free merozoites counted 9 dpi; type: cell-based, Cystoisospora suis; conditions: 400 nM once at 2 dpi; vs DMSO-only and no-treatment controls
Procedure: The laboratory strain C. suis Wien I ([Joachim and Mundt, 2011]), was maintained by passage in suckling piglets every 3–6 months and infectivity in vivo was assessed regularly at the Institute of Parasitology, University of Veterinary Medicine, Vienna. Oocysts were purified from collected feces, brought to sporulation and stored as described elsewhere ([Worliczek et al., 2013]). For in vitro studies, sporozoites were excysted ([Worliczek et al., 2013]), enumerated with a hemocytometer and used immediately for infection of semi-permanent intestinal porcine epithelial cells (IPEC-1). For in vivo studies, sporulated oocysts were washed with tap water and enumerated prior to infection of piglets.
IPEC-1 cells were maintained in culture medium at 37 °C and 5% CO2 (DHEM/HAM12 supplemented with 5% fetal calf serum and penicillin/streptomycin; Gibco via Thermo Fisher, Vienna, Austria). Cells (4 × 10^4) were used to seed 24-well plates and grown to confluence. All BKI compounds were stored as 20 mM stock solutions in 100% dimethyl sulfoxide (DMSO) at −20 °C. Cell viability in the presence of DMSO and BKIs was determined by colorimetric cell proliferation (WST-1) assays ([Shrestha et al., 2019]). In addition IPEC-1 cells were infected with serial dilutions of C. suis sporozoites, obtained after excystation to evaluate the growth curves of merozoites during 5–9 days of cultivation. To determine the effect of BKI 1369 on parasite replication, sporozoites (5 × 10^2) were added to each well one day after seeding of host cells and incubated with different concentrations of BKI 1369 at 40 °C for various time periods or a DMSO control, in triplicate.
In order to test whether BKI 1369 affects initial host cell invasion by C. suis, freshly excysted sporozoites were pre-incubated with BKI 1369 or DMSO for 6 h at 37 °C. Subsequently, sporozoites were washed with medium and used for infection of cell monolayers (5 × 10^2/well), in triplicate. Readout for both growth (merozoite replication) and invasion-inhibition experiments was microscopical evaluation by counting free merozoites 9 days post-infection (dpi) from culture supernatants. Supernatants were collected and free merozoites were counted in pooled samples at 9 dpi from quadruplicate wells in C-Chip disposable hemocytometers (NanoEnTek/Roth Lactan, Graz, Austria). All assays included DMSO and no-treatment controls in quadruplicate.
Statistical calculations for in vivo trials were performed with RStudio version 1.1.453 (RStudio Team, 2018), descriptive statistics with Microsoft Excel 2010 (Microsoft Inc., Vienna, Austria) and GraphPad Prism version 5.04 for Windows (GraphPad Software, San Diego, California USA). Differences in clinical and parasitological parameters between groups were analyzed with ANOVA in the case of normal distribution and variance homogeneity of the data, or a Kruskal-Wallis rank sum test if this was not the case. In the event of significance for the omnibus tests, parametric or non-parametric post-hoc tests for multiple comparisons were performed (according to Tukey and Conover, respectively), with P-value adjustment after Bonferroni. In vitro assays were evaluated by t-tests with significance reported at P < 0.05. For testing of efficacy in vitro, the percentage of growth/invasion inhibition was calculated as follows: % inhibition = (1−No. of merozoites counted at 9 dpi in BKI 1369 treated culture /No. of merozoites counted at 9 dpi in DMSO-only treated culture)x100

Concentration in pooled fecal samples ([1]; Group A (20 mg BKI 1369/kg BW; 0 dpi), SD 2, −24 h (before treatment)): 0.0 µM | Concentration in pooled fecal samples ([1]; Group A (20 mg BKI 1369/kg BW; 0 dpi), SD 3, 2 h post first-dose): 0.0 µM | Concentration in pooled fecal samples ([1]; Group A (20 mg BKI 1369/kg BW; 0 dpi), SD 4, 24 h post first-dose): 54.0 µM | Concentration in pooled fecal samples ([1]; Group A (20 mg BKI 1369/kg BW; 0 dpi), SD 5, 48 h post first-dose): 60.8 µM | Concentration in pooled fecal samples ([1]; Group A (20 mg BKI 1369/kg BW; 0 dpi), SD 29, 624 h post first-dose): 0.0 µM | Cmax ([1]; Group A: single treatment 20 mg BKI 1369/kg on SD 3, pooled feces): 60.8 µM | Fecal Tmax ([1]; Group A: single treatment 20 mg BKI 1369/kg on SD 3, pooled feces, post dose): 48 h | Concentration in pooled fecal samples ([1]; Group B (20 mg BKI 1369/kg BW; 2 dpi), SD 4, −24 h (before treatment)): 0.0 µM | Concentration in pooled fecal samples ([1]; Group B (20 mg BKI 1369/kg BW; 2 dpi), SD 5, 2 h post first-dose): 0.0 µM | Concentration in pooled fecal samples ([1]; Group B (20 mg BKI 1369/kg BW; 2 dpi), SD 6, 24 h post first-dose): 0.8 µM | Concentration in pooled fecal samples ([1]; Group B (20 mg BKI 1369/kg BW; 2 dpi), SD 7, 48 h post first-dose): 53.5 µM | Concentration in pooled fecal samples ([1]; Group B (20 mg BKI 1369/kg BW; 2 dpi), SD 29, 576 h post first-dose): 0.0 µM | Fecal Tmax ([1]; Group B: single treatment 20 mg BKI 1369/kg on SD 5, pooled feces, post-dose): 48 h | Concentration in pooled fecal samples ([1]; Group C (20 mg BKI 1369/kg BW; 2 and 4 dpi), SD 4, −24 h (before treatment)): 0.0 µM | Concentration in pooled fecal samples ([1]; Group C (20 mg BKI 1369/kg BW; 2 and 4 dpi), SD 5, 2 h post first-dose): 0.0 µM | Concentration in pooled fecal samples ([1]; Group C (20 mg BKI 1369/kg BW; 2 and 4 dpi), SD 6, 24 h post first-dose): 130.0 µM | Concentration in pooled fecal samples ([1]; Group C (20 mg BKI 1369/kg BW; 2 and 4 dpi), SD 7, 48/2 h post 2nd dose): 280.8 µM | Concentration in pooled fecal samples ([1]; Group C (20 mg BKI 1369/kg BW; 2 and 4 dpi), SD 8, 72/24 h post 2nd dose): 331.6 µM | Concentration in pooled fecal samples ([1]; Group C (20 mg BKI 1369/kg BW; 2 and 4 dpi), SD 9, 96/48 h post 2nd dose): 537.0 µM | Cmax ([1]; Group C: 20 mg BKI 1369/kg on SD 5 and SD 7, pooled feces): 537 µM | Fecal Tmax ([1]; Group C: 20 mg BKI 1369/kg on SD 5 and SD 7, pooled feces, post first-dose): 96 h | Excretion via the feces (in words) ([1]; after oral BKI 1369, piglets): major metabolite excreted in the feces
SMILES: CN1CCC(Cn2nc(-c3ccc4nc(O)ccc4c3)c3c(N)ncnc32)CC1 [BKI 1817]
Decrease of total merozoite counts [2]: 69.6%
